# According to patent US11867696B2, “Antigen-coupled immunoreagents” (CELL IDX, INC., priority 2015, dated 2024):
# Where no end group is shown, it is not given here. [ ]: non-standard residue; d: D form. The star is where a group is joined. AOA = aminooxyacetyl (N-terminus modified with aminooxyacetamide), NOCC(=O)*; pY = N[C@@H](Cc1ccc(OP(=O)(O)O)cc1)C(=O)O
# Biological target: corresponding anti-peptide antibody
# Assay: Dissociation constants (KD) between peptide and its corresponding antibody, ForteBio instrument
# Format: binding, rabbit
# Text: Goat anti-mouse and goat anti-rabbit antibodies were purchased from ImmunoReagents, Inc. (Raleigh, NC). Rabbit monoclonal anti-estrogen receptor (ER), anti-progesterone receptor (PR) and anti-HER2/neu receptor (HER2) antibodies were purchased from Epitomics, Inc. (Fremont, CA). Mouse anti-Ki67 was purchased from BD Biosciences, San Diego, CA Rabbit monoclonal anti-peptide antibodies against PEP1, PEP2, PEP3, PEP4, and PEP5 were obtained from AvantGen, Inc. (San Diego, CA).
# The “AOA” group (aminooxyacetamide) was used to attach the peptide to the 4FB-modified primary antibody. Also shown in Table 1 are the dissociation constants (KD) between peptide and its corresponding antibody. These values were obtained using a ForteBio instrument (www.fortebio.com).
row,Substance,Kd [nM]
1,AOA-DATNVGDEGGFAPNILENK ({AOA}-DATNVGDEGGFAPNILENK) [PEP3],0.09
2,AOA-DITSDTSGDFR ({AOA}-DITSDTSGDFR) [PEP2],0.16
3,AOA-ETSGLQEQRNHLQGK-NH2 (HELM PEPTIDE1{[NOCC(=O)[*:2]].E.T.S.G.L.Q.E.Q.R.N.H.L.Q.G.K.[am]}$$$$V2.0; SMILES CC(C)C[C@H](NC(=O)CNC(=O)[C@H](CO)NC(=O)[C@@H](NC(=O)[C@H](CCC(=O)O)NC(=O)CON)[C@@H](C)O)C(=O)N[C@@H](CCC(N)=O)C(=O)N[C@@H](CCC(=O)O)C(=O)N[C@@H](CCC(N)=O)C(=O)N[C@@H](CCCNC(=N)N)C(=O)N[C@@H](CC(N)=O)C(=O)N[C@@H](Cc1c[nH]cn1)C(=O)N[C@@H](CC(C)C)C(=O)N[C@@H](CCC(N)=O)C(=O)NCC(=O)N[C@@H](CCCCN)C(N)=O) [PEP6],0.02
4,AOA-GLEPGQEYNVLLTAEK ({AOA}-GLEPGQEYNVLLTAEK) [PEP4],0.09
5,AOA-LALQAQPVPDELVTK ({AOA}-LALQAQPVPDELVTK) [PEP1],0.09
6,AOA-RPHFPQF-pY-SASGTA ({AOA}-RPHFPQF[pY]SASGTA) [PEP5],0.04
